Here are results for nine compounds from US20250263753A1, “BRIDGED CYCLE-BASED INHIBITORS OF DNA-DEPENDENT PROTEIN KINASE AND COMPOSITIONS AND APPLICATION IN GENE EDITING” (Juno Therapeutics, Inc., priority 2023, published 2025).

Where two headings read alike, the source gives them in different places.

In assay [1] the target is PI3Kδ (His-PIK3CD/PIK3R1, p110 delta/p85 alpha) (Homo sapiens (Human), UniProt O00329). In words: PI3Kδ biochemical assay (HTRF/FRET probe). The class given is binding. The conditions noted are these: class symbol. The protocol: Phosphoinositide 3-kinase (PI3K) Biochemical Assay: A solution was prepared containing 0.2 nM Anti-HIS-Terbium (Cisbio, 64CUSTAZU), 40 nM designed-probe and 1.0 nM His-PIK3CD/PIK3R1 (p110 delta/p85 alpha) in FRET Buffer (20 mM HEPES, 10 mM MgCl2, 0.015% Brij-35, 4 mM DTT, 0.05 mg/mL BSA).
(Time-resolved FRET reads energy transfer from a long-lived donor to a nearby acceptor.)

Assay [2] has as its target DNA-PK (Homo sapiens (Human), UniProt P78527). In words: DNA-PK biochemical assay (Reaction Biology HotSpot kinase assay, 10 μM ATP). The method, boiled down: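 Radiometric 33P-ATP kinase reaction in 20 mM Hepes pH 7.5, 10 mM MgCl2, 1 mM EGTA, 2 mM DTT, 1% DMSO. Compound preincubated with kinase and substrate 20 min at room temperature, then reaction run 2 h at room temperature after ATP addition. Activity read by P81 filter binding.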

Assay [3] has as its target ATM (Homo sapiens (Human), UniProt Q13315). In words: ATM biochemical assay (Reaction Biology HTRF kinase assay, 10 μM ATP). A digest of the protocol: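 HTRF kinase assay with N-terminal GST-tagged human p53 (aa2-393) substrate, 10 μM ATP, in 50 mM Hepes pH 7.5, 10 mM MnCl2, 1% DMSO. Enzyme preincubated with compound 30 min, reaction 2 h at room temperature. pS15 phosphorylation read by Eu-cryptate anti-p53-pS15/anti-GST-d2 HTRF (615/665 nm).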

The target in assay [4] is PI3Kα (His-PIK3CA/PIK3R1, p110 alpha/p85 alpha) (Homo sapiens (Human), UniProt P42336). In words: PI3Kα biochemical assay (HTRF/FRET probe). It counts as binding. Conditions: class symbol. The protocol:
Phosphoinositide 3-kinase α (PI3Kα) Biochemical Assay: A solution was prepared containing 0.2 nM Anti-HIS-Terbium (Cisbio, 64CUSTAZU), 3.7 nM designed-probe and 1.0 nM His-PIK3CA/PIK3R1 (p110 alpha/p85 alpha) in FRET Buffer (20 mM HEPES, 10 mM MgCl2, 0.015% Brij-35, 4 mM DTT, 0.05 mg/mL BSA).

Where [5] appears, read: read-out: ATM HTRF 10 μM ATP IC50, class symbol.
Setting [6] is: read-out: DNA-PK HotSpot 10 μM ATP IC50, class symbol.

Chain of ATM (Q13315 whole entry, the tested form may be a part): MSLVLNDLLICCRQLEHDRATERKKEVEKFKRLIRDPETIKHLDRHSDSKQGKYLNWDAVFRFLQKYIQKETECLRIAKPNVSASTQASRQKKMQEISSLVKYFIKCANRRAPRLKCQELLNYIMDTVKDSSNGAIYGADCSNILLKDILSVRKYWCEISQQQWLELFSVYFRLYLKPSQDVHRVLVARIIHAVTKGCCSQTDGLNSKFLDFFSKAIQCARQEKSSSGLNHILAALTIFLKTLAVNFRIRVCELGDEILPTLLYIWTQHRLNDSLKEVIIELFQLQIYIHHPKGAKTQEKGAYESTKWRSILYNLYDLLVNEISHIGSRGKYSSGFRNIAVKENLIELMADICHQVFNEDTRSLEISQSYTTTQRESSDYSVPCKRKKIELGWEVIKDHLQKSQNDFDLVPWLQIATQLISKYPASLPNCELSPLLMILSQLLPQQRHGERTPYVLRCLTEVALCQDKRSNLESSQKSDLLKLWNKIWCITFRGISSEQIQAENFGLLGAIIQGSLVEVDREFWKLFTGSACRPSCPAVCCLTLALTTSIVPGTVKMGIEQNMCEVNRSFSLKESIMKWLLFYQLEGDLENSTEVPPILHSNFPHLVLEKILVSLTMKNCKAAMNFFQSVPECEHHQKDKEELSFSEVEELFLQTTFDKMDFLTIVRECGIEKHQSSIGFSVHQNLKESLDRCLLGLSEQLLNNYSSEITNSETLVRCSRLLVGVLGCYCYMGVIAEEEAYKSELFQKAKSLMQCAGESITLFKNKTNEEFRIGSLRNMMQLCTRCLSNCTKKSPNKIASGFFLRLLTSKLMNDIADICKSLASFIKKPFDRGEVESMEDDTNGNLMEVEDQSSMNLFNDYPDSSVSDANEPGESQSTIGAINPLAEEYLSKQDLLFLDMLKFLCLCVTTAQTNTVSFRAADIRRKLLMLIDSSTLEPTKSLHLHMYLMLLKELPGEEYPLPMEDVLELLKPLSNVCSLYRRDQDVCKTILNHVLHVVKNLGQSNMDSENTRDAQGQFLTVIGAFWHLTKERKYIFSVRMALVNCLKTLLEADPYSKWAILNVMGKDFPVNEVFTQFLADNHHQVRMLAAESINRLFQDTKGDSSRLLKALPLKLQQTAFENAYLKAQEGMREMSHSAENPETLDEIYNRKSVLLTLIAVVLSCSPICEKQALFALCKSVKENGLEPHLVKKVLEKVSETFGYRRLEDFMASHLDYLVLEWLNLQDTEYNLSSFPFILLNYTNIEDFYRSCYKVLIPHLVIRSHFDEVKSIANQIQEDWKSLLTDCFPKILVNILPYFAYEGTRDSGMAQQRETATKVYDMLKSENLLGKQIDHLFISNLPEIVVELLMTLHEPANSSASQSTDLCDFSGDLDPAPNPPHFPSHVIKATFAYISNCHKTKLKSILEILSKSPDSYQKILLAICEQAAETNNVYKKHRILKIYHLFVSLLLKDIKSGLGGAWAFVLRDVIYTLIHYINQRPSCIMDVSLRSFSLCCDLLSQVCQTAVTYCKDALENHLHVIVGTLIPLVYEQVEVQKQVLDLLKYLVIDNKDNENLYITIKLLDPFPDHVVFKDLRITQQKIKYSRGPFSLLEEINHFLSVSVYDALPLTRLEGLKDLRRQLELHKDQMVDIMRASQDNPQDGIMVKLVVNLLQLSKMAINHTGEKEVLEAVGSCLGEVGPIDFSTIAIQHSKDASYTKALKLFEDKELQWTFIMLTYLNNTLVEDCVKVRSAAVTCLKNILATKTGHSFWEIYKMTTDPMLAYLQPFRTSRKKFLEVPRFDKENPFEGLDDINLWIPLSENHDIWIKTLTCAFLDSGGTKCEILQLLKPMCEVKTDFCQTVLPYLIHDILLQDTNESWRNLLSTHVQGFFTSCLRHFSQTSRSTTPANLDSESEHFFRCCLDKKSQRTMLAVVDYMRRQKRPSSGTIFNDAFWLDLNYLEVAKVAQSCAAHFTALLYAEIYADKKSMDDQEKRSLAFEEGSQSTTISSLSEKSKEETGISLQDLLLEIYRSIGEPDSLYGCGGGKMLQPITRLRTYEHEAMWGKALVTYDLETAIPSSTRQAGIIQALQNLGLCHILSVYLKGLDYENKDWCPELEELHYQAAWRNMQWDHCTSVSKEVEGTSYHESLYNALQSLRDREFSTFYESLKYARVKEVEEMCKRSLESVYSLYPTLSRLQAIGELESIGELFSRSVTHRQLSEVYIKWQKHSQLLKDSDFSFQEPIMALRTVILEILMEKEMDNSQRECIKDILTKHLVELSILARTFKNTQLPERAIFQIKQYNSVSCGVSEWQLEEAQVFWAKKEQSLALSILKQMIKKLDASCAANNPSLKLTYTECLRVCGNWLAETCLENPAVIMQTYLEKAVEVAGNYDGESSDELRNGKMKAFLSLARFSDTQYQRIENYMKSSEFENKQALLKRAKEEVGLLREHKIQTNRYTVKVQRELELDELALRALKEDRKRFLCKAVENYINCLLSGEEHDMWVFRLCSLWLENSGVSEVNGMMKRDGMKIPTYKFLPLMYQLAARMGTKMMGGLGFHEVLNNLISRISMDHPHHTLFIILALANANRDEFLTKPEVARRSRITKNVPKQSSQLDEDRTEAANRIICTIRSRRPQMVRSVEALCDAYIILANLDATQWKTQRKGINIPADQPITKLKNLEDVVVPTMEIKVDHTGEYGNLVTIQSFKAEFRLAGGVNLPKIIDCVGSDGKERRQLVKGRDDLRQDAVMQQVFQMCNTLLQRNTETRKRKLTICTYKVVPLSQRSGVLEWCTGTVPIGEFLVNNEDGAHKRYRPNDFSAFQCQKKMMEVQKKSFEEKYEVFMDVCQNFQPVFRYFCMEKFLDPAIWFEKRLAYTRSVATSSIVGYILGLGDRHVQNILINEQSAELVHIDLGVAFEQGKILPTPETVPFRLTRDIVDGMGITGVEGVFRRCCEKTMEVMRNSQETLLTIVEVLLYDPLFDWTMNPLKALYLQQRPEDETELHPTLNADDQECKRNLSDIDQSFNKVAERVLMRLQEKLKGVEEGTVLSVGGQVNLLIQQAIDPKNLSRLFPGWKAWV
Chain of PI3Kα (His-PIK3CA/PIK3R1, p110 alpha/p85 alpha) (P42336 whole entry, species assumed): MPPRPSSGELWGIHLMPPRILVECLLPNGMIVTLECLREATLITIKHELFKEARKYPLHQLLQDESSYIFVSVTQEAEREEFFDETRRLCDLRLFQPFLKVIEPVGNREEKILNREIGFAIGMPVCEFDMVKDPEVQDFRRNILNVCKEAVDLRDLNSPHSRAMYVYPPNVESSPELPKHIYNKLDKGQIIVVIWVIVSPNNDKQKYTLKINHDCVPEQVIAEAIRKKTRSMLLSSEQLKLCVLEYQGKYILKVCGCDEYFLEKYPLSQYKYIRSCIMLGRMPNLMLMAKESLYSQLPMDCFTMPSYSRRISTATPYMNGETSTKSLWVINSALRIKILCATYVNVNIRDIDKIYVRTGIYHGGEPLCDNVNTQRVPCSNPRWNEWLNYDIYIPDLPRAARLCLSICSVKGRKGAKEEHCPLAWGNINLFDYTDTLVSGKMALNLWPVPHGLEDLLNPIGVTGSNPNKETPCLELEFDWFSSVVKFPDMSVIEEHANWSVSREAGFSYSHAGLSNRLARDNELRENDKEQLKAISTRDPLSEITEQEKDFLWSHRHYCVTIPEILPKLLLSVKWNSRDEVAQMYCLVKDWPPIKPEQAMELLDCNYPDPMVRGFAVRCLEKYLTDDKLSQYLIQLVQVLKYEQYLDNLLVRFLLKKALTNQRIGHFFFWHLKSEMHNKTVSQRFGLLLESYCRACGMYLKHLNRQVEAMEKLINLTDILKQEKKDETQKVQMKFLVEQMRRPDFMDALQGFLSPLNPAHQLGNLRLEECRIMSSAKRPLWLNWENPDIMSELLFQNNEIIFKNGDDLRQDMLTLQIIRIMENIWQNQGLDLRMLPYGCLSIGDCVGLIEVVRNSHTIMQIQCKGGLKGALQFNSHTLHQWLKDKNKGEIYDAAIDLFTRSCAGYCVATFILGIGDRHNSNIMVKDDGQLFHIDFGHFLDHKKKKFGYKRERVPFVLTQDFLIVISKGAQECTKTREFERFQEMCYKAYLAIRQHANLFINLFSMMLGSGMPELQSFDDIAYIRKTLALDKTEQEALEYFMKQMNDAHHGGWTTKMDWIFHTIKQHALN
Chain of PI3Kα (His-PIK3CA/PIK3R1, p110 alpha/p85 alpha) (P27986 whole entry partner, species assumed): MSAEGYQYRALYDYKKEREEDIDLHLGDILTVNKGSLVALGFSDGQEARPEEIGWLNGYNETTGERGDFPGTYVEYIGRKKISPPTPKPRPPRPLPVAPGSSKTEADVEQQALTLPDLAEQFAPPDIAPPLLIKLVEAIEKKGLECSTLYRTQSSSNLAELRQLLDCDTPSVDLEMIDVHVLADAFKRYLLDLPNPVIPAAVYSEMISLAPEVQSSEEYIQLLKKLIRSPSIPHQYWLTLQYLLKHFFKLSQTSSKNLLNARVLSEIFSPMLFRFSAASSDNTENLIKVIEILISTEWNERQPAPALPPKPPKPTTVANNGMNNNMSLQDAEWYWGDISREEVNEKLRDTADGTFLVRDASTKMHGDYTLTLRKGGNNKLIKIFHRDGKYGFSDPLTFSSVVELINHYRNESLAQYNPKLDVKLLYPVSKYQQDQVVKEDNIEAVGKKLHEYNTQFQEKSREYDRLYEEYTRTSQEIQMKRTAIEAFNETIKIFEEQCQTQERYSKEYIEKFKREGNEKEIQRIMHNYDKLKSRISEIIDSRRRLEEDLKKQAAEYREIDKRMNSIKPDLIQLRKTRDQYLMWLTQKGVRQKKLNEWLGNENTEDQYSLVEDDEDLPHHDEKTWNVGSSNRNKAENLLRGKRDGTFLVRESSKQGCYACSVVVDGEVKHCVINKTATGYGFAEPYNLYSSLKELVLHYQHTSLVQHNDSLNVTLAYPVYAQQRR

On to `Cc1cc2ncnn2cc1Nc1ncc2c(n1)N(C13CC(F)(C1)C3)CC(=O)N2C` [Compound 54, 8-{3-Fluorobicyclo[1.1.1]pentan-1-yl}-5-methyl-2-({7-methyl-[1,2,4]triazolo[1,5-a]pyridin-6-yl}amino)-5,6,7,8-tetrahydropteridin-6-one], for which the half-maximal inhibitory concentration (IC50) (as a rule, the concentration that gives 50% inhibition) in assay [1] is at least 1000 nM; in assay [2] (class symbol) it was 1 to 10 nM; in assay [3] (setting [5]) it was at least 1000 nM; in assay [4] it was at least 1000 nM.

Regarding `Cc1cc2nsnc2cc1Nc1ncc2c(n1)N(C13CCC(O)(CC1)C3)CC(=O)N2C` [Compound 55, 8-{4-Hydroxybicyclo[2.2.1]heptan-1-yl}-5-methyl-2-[(6-methyl-2,1,3-benzothiadiazol-5-yl)amino]-5,6,7,8-tetrahydropteridin-6-one], the half-inhibitory concentration (IC50) was 100 to 1000 nM in assay [1], under 1 nM in assay [2] (setting [6]), 1 to 10 nM in assay [3] (class symbol) and 10 to 100 nM in assay [4].

For the compound `Cc1cc2c(cc1Nc1ncc3c(n1)N(C14CC(F)(C1)C4)CC(=O)N3C)OCO2` [Compound 56, 8-{3-Fluorobicyclo[1.1.1]pentan-1-yl}-5-methyl-2-[(6-methyl-2H-1,3-benzodioxol-5-yl)amino]-5,6,7,8-tetrahydropteridin-6-one], the half-maximal inhibitory concentration (IC50) in assay [1] was at least 1000 nM; in assay [2] (class symbol), 10 to 100 nM; in assay [3] (setting [5]), at least 1000 nM; in assay [4], at least 1000 nM.

Regarding `Cc1cc2ncccc2cc1Nc1ncc2c(n1)N(C13CC(F)(C1)C3)CC(=O)N2C` [Compound 57, 8-(3-fluorobicyclo[1.1.1]pentan-1-yl)-5-methyl-2-((7-methylquinolin-6-yl)amino)-7,8-dihydropteridin-6(5H)-one], the IC50 in assay [1] was in the range of 100 to 1000 nM; in assay [2] (class symbol), 1 to 10 nM; in assay [3] (class symbol), 10 to 100 nM; in assay [4], 100 to 1000 nM.

On to `Cc1cc2nccnc2cc1Nc1ncc2c(n1)N(C13CCC(O)(CC1)C3)CC(=O)N2C` [Compound 59, 8-(4-hydroxybicyclo[2.2.1]heptan-1-yl)-5-methyl-2-((7-methylquinoxalin-6-yl)amino)-7,8-dihydropteridin-6(5H)-one], for which the half-inhibitory concentration (IC50) in assay [1] is 100 to 1000 nM; in assay [2] (setting [6]) it was under 1 nM; in assay [3] (class symbol), 10 to 100 nM; in assay [4] it was 100 to 1000 nM.

On to `Cc1cc2nonc2cc1Nc1ncc2c(n1)N(C13CCC(O)(CC1)C3)CC(=O)N2C` [Compound 60, 8-(4-hydroxybicyclo[2.2.1]heptan-1-yl)-5-methyl-2-((6-methylbenzo[c][1,2,5]oxadiazol-5-yl)amino)-7,8-dihydropteridin-6(5H)-one], for which the IC50 in assay [1] was 100 to 1000 nM; in assay [2] (setting [6]), under 1 nM; in assay [3] (class symbol) it was 10 to 100 nM; in assay [4], 100 to 1000 nM.

As to `Cc1cc2nnccc2cc1Nc1ncc2c(n1)N(C13CCC(O)(CC1)C3)CC(=O)N2C` [Compound 61, 8-(4-hydroxybicyclo[2.2.1]heptan-1-yl)-5-methyl-2-((7-methylcinnolin-6-yl)amino)-7,8-dihydropteridin-6(5H)-one], the IC50 in assay [1] was 100 to 1000 nM; in assay [2] (setting [6]) it was under 1 nM; in assay [3] (class symbol) it was 1 to 10 nM; in assay [4], 10 to 100 nM.

Turning to `COC12CCC(N3CC(=O)N(C)c4cnc(Nc5cn6ncnc6cc5C)nc43)(CC1)C2` [Compound 62, 8-(4-methoxybicyclo[2.2.1]heptan-1-yl)-5-methyl-2-((7-methyl-[1,2,4]triazolo[1,5-a]pyridin-6-yl)amino)-7,8-dihydropteridin-6(5H)-one], the IC50 in assay [1] was at least 1000 nM; in assay [2] (setting [6]) it was under 1 nM; in assay [3] (class symbol), 10 to 100 nM; in assay [4] it was at least 1000 nM.

For the compound `COC12CCC(N3CC(=O)N(C)c4cnc(Nc5cc6c(cc5C)OCO6)nc43)(CC1)C2` [Compound 63, 8-(4-methoxybicyclo[2.2.1]heptan-1-yl)-5-methyl-2-((6-methylbenzo[d][1,3]dioxol-5-yl)amino)-7,8-dihydropteridin-6(5H)-one], the IC50 in assay [1] was 100 to 1000 nM; in assay [2] (class symbol) it was 1 to 10 nM; in assay [3] (class symbol) it was 100 to 1000 nM; in assay [4], at least 1000 nM.
